Data as given in PMC7040082 (Journal of Pharmacokinetics and Pharmacodynamics, 2019).
Where “and” joins values, the source holds several entries; their conditions need not be identical. Equal entries are not always repeated. Where two headings read alike, the source gives them in different places.

Experiments:
[1] = all samples 20 min to 72 h; ref [1]; cited from earlier work
[2] = Noncompartmental (NC) analysis of IV bolus serum concentrations in dogs
[3] = cited from earlier work; for urinary metformin recovery: human, at 60 to 72 h
[4] = for β (PD scale parameter, first arrival time of drug): constrained to 25-30 s; for AUC for CGPC(t) as percent of dose eliminated, 72h-∞: late-time 72 h to ∞ (drug mass remaining at 72 h); for AUC for CGPC(t) as percent of dose eliminated, 1/3-72h: sample-times 20 min to 72 h
in vivo = conditions: both, mixed-breed, dog, serum, iv, mean of seven dogs
[5] = dog, in vivo; cited from earlier work
[6] = in vivo; cited from earlier work
[7] = GPC fit, single IV bolus, individual dogs (Dog 1-7)
[8] = GPC fit, single IV bolus, mean of seven dogs

For CN(C)C(=N)N=C(N)N [metformin, 1,1-dimethylbiguanide], the “range of serum sample concentrations” value [1] is listed as 9.78 to 19,100 ng/ml, the AUC (E2 fit, single IV bolus, mean of seven dogs) is listed as 15.8 mgh/L and the “p1 (fraction of AUC from first exponential term)” value (E2 fit, mean of seven dogs) is listed as 79.3%. The “p2 (fraction of AUC from second exponential term)” value (E2 fit, mean of seven dogs) was 20.7%, the λ1 (E2 fit, mean of seven dogs) was 0.721 h⁻¹ and the λ2 (E2 fit, mean of seven dogs) was 0.0490 h⁻¹. The “CL as percent of expected RPF” value (E2 mean CL, RPF≈17.86 mlmin^-1kg^-1) was 123.7%, the “CL E2” value (biexponential model, mean of seven dogs) was 22.1 mlmin^-1kg^-1 and the “E2 CL-value greater than GPC CL-value” (dog 6) was 41%. For the same molecule, the “CL as percent of expected RPF” value ([2]; NC mean CL, RPF≈17.86 mlmin^-1kg^-1) was 104.7%, the “NC CL-value greater than GPC CL-value” ([2]; dog 6) was 25% and the “urine recovery from IV metformin” value ([3]; 48 h, may have been inflated, ref Pentikäinen et al. [21]) was 99.9%. For the same molecule, the urinary metformin recovery ([3]; ref Table 1 of [19]) was 86%, the urinary metformin recovery ([3]; ref Table II of [20]) was 78.9% and the “AUC for CGPC(t) as percent of dose eliminated, 0-72h” value ([4]; 0 to 72 h (model renal excreted), mean of seven dogs) was 78.9%. The “AUC for CGPC(t) as percent of dose eliminated, 0-72h” value ([4]; 0 to 72 h, individual dogs 1-7) was 91.3% and 71.6% and 84.4% and 79.7% and 67.0% and 82.6% and 75.9%, the “β (PD scale parameter, first arrival time of drug)” value ([4]; GPC fit, individual dogs (Dog 1-7)) was 30 s and 25 s and the “β (PD scale parameter, first arrival time of drug)” value ([4]; GPC fit, mean of seven dogs) was 26 s. The CL [4, 7] was 11.4 ml/minkg and 14.7 ml/minkg and 9.8 ml/minkg and 11.5 ml/minkg and 26.7 ml/minkg and 19.4 ml/minkg and 12.4 ml/minkg, the “Peak (time at the maximum of the GPC model)” value [4, 7] was 1.34 min and 4.85 min and 0.66 min and 6.17 min and 2.21 min and 1.70 min and the “a (GD shape parameter)” value [4, 7] was 0.5194 and 0.7629 and 0.3493 and 0.8112 and 0.6689 and 0.6092 and 0.6435. For the same molecule, the “b (GD rate parameter)” value [4, 7] was 0.6137 per h and 1.0518 per h and 0.7318 per h and 0.9993 per h and 0.9107 per h and 0.8062 per h and 1.1035 per h, the “α (PD shape parameter)” value [4, 7] was 0.1929 and 0.1571 and 0.2644 and 0.1365 and 0.2010 and 0.1726 and 0.1199 and the “Peak (time at the maximum of the GPC model)” value [4, 8] was 2.73 min. The “a (GD shape parameter)” value [4, 8] was 0.6235, the “b (GD rate parameter)” value [4, 8] was 0.8882 per h and the “α (PD shape parameter)” value [4, 8] was 0.1778. For the same molecule, the “CL as percent of estimated total renal plasma flow (RPF)” value ([4]; GPC model mean CL, RPF≈17.86 mlmin^-1kg^-1 from PAH meta-analysis) was 84.8%, the “CL GPC” value ([4]; GPC model, individual dogs 1-7) was 14.7 mlmin^-1kg^-1 and 9.8 mlmin^-1kg^-1 and 11.5 mlmin^-1kg^-1 and 26.7 mlmin^-1kg^-1 and 19.4 mlmin^-1kg^-1 and 12.4 mlmin^-1kg^-1 and 11.4 mlmin^-1kg^-1 and the “early concentration peak, total elapsed time” value ([4]; GPC models, range of seven dogs) was 0.66 to 6.17 min. The “CL as percent of RPF using geometric means” value ([4]; GPC, GM EPAH of 35 controls) was 84.7%, the “decrease of drug mass in the body from the initial dose” value ([4]; at 72 h, […] remaining) was 5 fold and the “AUC for CGPC(t) as percent of dose eliminated, 72h-∞” value ([4]; individual dogs 1-7) was 8.7% and 28.4% and 15.6% and 20.3% and 33.0% and 17.4% and 24.1%. The “AUC for CGPC(t) as percent of dose eliminated, 72h-∞” value ([4]; mean of seven dogs) was 21.1%, the “decrease of serum concentration from estimated peak concentration” value ([4]; over 72 h) was 1000 fold and the “AUC for CGPC(t) as percent of dose eliminated, 1/3-72h” value ([4]; individual dogs 1-7) was 53.1% and 58.7% and 63.7% and 60.5% and 50.8% and 62.0%. The “AUC for CGPC(t) as percent of dose eliminated, 1/3-72h” value ([4]; mean of seven dogs) was 58.5%, the AUC (in vivo; AUC, GPC fit, single IV bolus) was 23600 ng·h/mL and the clearance (in vivo; CL GPC, GPC model) was 15.1 mL/min/kg. The clearance (in vivo; CL, GPC fit, single IV bolus) was 15.1 mL/min/kg.
In the case of Nc1ccc(C(=O)NCC(=O)O)cc1 [PAH, p-aminohippurate], the CLPAH renal clearance [5] is given as 13.51 mlmin^-1kg^-1, the “EPAH arteriovenous extraction ratio” value [5] is given as 0.7564 and the “nominal canine EPAH” value [5] is given as 75.6%. The EPAH in humans [6] was “circa 90%”.
